{
  "source": "patent US20220372585A1",
  "about": "“Sensors for Aromatic Compounds and Methods of Making and Using Same” (Washington University, priority 2021, published 2022)",
  "type_in_all_cases": "cell-based, E. coli",
  "key": {"E274Q+C7V TyrR": {"molecular_target": "T1, E274Q+C7V TyrR (Escherichia coli, UniProt P07604, C7V/E274Q)", "T1 construct": "expressed in transfected cells; host or cells: E. coli Nissle 1917 (EcN), plasmid pAGR160", "T1 sequence (P07604 whole entry C7V/E274Q)": "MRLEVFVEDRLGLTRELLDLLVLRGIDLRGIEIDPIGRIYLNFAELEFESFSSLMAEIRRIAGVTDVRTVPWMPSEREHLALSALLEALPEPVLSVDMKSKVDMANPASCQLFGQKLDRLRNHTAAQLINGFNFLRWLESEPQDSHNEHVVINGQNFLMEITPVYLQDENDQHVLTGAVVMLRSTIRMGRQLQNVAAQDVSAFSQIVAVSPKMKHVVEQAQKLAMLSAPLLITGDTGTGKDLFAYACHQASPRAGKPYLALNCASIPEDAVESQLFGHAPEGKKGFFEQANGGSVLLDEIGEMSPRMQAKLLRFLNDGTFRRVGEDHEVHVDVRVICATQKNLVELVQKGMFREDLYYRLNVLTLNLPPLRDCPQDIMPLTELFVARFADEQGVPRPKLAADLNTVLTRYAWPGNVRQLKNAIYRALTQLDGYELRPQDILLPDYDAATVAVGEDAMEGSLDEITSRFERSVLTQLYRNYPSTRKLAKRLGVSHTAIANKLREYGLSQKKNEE", "test": "PtyrP-GFP reporter, E274Q+C7V TyrR (pAGR160) in EcN", "protocol": "(§1) Everything but (Eb) medium was prepared by supplementing M9 minimal medium with 1 mM MgSO4, […]), 0.4% w/v glucose, and all non-aromatic amino acids (0.8 mM alanine, 5 mM arginine, 0.4 mM asparagine, 0.4 mM aspartate, 0.1 mM cysteine, 0.6 mM glutamate, 0.6 mM glutamine, 0.8 mM glycine, 0.2 mM histidine, 0.4 mM isoleucine, 0.8 mM leucine, 0.4 mM lysine, 0.2 mM methionine, 0.4 mM proline, 10 mM serine, 0.4 mM threonine, and 0.6 mM valine). […] Experimental cultures were prepared by diluting overnight cultures 200× into 0.6 mL fresh Eb medium supplemented with the respective ligands (Phe and Tyr) in 2 mL 96-deep well plates (Eppendorf, Hamburg, Germany). Cultures were grown for 8 h at 37° C. and 250 rpm before sampled for fluorimetry or flow cytometry analysis. All medium was supplemented with the relevant antibiotics for plasmid maintenance (34 mg/ml chloramphenicol and 100 mg/ml spectinomycin).\n(§2) […] culture samples were collected and transferred to 96-well assay microplates (clear, flat bottom black, Greiner Bio-One). The fluorescence and culture absorbance (Abs) were measured using a Tecan microplate reader (Infinite M200 Pro) as previously described. The fluorescence of GFP was measured with an excitation at 483 nm and emission at 530 nm. The Abs of the samples was measured at 600 nm. The measured fluorescence was normalized by dividing by the Abs and subtracting the same ratio obtained from non-fluorescent wild-type cells (Equation 1).\n(§3) Flow cytometry was performed as previously described. […] Cytometry data was gated by forward and side scatter."}, "E274Q+D103H TyrR": {"molecular_target": "T2, E274Q+D103H TyrR (Escherichia coli, UniProt P07604, D103H/E274Q)", "T2 construct": "expressed in transfected cells; host or cells: E. coli Nissle 1917 (EcN), plasmid pAGR158", "T2 sequence (P07604 whole entry D103H/E274Q)": "as the sequence (P07604 whole entry C7V/E274Q) above, with V7C, D103H counted along it", "test": "PtyrP-GFP reporter, E274Q+D103H TyrR (pAGR158) in EcN", "protocol": "as §1, §2, §3"}, "[1]": {"molecular_target": "T3, E274Q TyrR with T14V and D103S combined (Escherichia coli, UniProt P07604, D103S/E274Q/T14V)", "T3 construct": "tyrR (WT); expressed in transfected cells; host or cells: E. coli Nissle 1917 (EcN)", "T3 sequence (P07604 whole entry T14V/D103S/E274Q)": "as the sequence (P07604 whole entry C7V/E274Q) above, with V7C, T14V, D103S counted along it", "test": "PtyrP-GFP reporter, E274Q TyrR with both T14V and D103S mutations combined", "conditions": "both mutations (T14V, D103S) combined in E274Q TyrR", "protocol": "as §1, with “All medium was supplemented with the relevant antibiotics for plasmid maintenance (34 mg/ml chloramphenicol and 100 mg/ml spectinomycin).” left out\nas §2, with “1). […]” for “1).”"}, "E274Q+L11G TyrR": {"molecular_target": "T4, E274Q+L11G TyrR (Escherichia coli, UniProt P07604, E274Q/L11G)", "T4 construct": "expressed in transfected cells; host or cells: E. coli Nissle 1917 (EcN), plasmid pAGR155", "T4 sequence (P07604 whole entry L11G/E274Q)": "as the sequence (P07604 whole entry C7V/E274Q) above, with V7C, L11G counted along it", "test": "PtyrP-GFP reporter, E274Q+L11G TyrR (pAGR155) in EcN", "protocol": "as §1, §2, §3"}, "E274Q+T14G TyrR": {"molecular_target": "T5, E274Q+T14G TyrR (Escherichia coli, UniProt P07604, E274Q/T14G)", "T5 construct": "expressed in transfected cells; host or cells: E. coli Nissle 1917 (EcN), plasmid pAGR156", "T5 sequence (P07604 whole entry T14G/E274Q)": "as the sequence (P07604 whole entry C7V/E274Q) above, with V7C, T14G counted along it", "test": "PtyrP-GFP reporter, E274Q+T14G TyrR (pAGR156) in EcN", "protocol": "as §1, §2, §3"}, "wild-type TyrR": {"molecular_target": "T6, wild-type TyrR (Escherichia coli, UniProt P07604)", "T6 construct": "tyrR (WT); expressed in transfected cells; host or cells: E. coli Nissle 1917 (EcN)", "test": "cell-based", "protocol": "as §1, §2, §3"}, "E274Q+T14V TyrR": {"molecular_target": "T7, E274Q+T14V TyrR (Escherichia coli, UniProt P07604, E274Q/T14V)", "T7 construct": "expressed in transfected cells; host or cells: E. coli Nissle 1917 (EcN), plasmid pAGR157", "T7 sequence (P07604 whole entry T14V/E274Q)": "as the sequence (P07604 whole entry C7V/E274Q) above, with V7C, T14V counted along it", "test": "cell-based", "protocol": "as §1, §2, §3"}, "R10F TyrR": {"molecular_target": "T8, R10F TyrR (Escherichia coli, UniProt P07604, R10F)", "T8 construct": "expressed in transfected cells; host or cells: E. coli Nissle 1917 (EcN), plasmid pAGR473", "T8 sequence (P07604 whole entry R10F)": "as the sequence (P07604 whole entry C7V/E274Q) above, with V7C, R10F, Q274E counted along it", "test": "cell-based", "conditions": "ligand alone, listed as Phe", "protocol": "as §1, §2, §3"}, "E274Q+D103S TyrR": {"molecular_target": "T9, E274Q+D103S TyrR (Escherichia coli, UniProt P07604, D103S/E274Q)", "T9 construct": "expressed in transfected cells; host or cells: E. coli Nissle 1917 (EcN), plasmid pAGR159", "T9 sequence (P07604 whole entry D103S/E274Q)": "as the sequence (P07604 whole entry C7V/E274Q) above, with V7C, D103S counted along it", "test": "cell-based", "protocol": "as §1, §2, §3"}, "E274Q TyrR": {"molecular_target": "T10, E274Q TyrR (Escherichia coli, UniProt P07604, E274Q)", "T10 construct": "expressed in transfected cells; host or cells: E. coli Nissle 1917 (EcN), plasmid pAGR102", "T10 sequence (P07604 whole entry E274Q)": "as the sequence (P07604 whole entry C7V/E274Q) above, with V7C counted along it", "test": "cell-based", "protocol": "as §1, §2, §3"}, "[2]": {"conditions": "E274Q+C7V TyrR, pAGR160, FIG. 10A, 8 h"}, "[3]": {"conditions": "E274Q+D103H TyrR, pAGR158, FIG. 10D, 8 h"}, "[4]": {"conditions": "E274Q+L11G TyrR, pAGR155, FIG. 10B, 8 h"}, "[5]": {"conditions": "E274Q+T14G TyrR, pAGR156, FIG. 10C, 8 h"}, "[6]": {"conditions": "wild-type TyrR, pAGR010, FIG. 1C, 8 h"}},
  "note": "Several values for one entry are separate records, joined by “and”; a condition that tells them apart may be missing. Equal entries are not always repeated. Entries after “also recorded” stand apart in the source; their conditions may differ.",
  "data": [
    {"smiles": "N[C@@H](Cc1ccccc1)C(=O)O", "note": "[Phenylalanine, phenylalanine]", "values": [
      {"measurement": "EC50", "setting": "E274Q+C7V TyrR", "result": 46, "unit": "µM"},
      {"measurement": "Fmax", "setting": "E274Q+C7V TyrR; [2]", "result": 10800},
      {"measurement": "Fmin", "setting": "E274Q+C7V TyrR; [2]", "result": 1120},
      {"measurement": "n (Hill coefficient)", "setting": "E274Q+C7V TyrR; [2]", "result": 2.5},
      {"measurement": "EC50", "setting": "E274Q+D103H TyrR", "result": 110, "unit": "µM"},
      {"measurement": "Fmax", "setting": "E274Q+D103H TyrR; [3]", "result": 11800},
      {"measurement": "Fmin", "setting": "E274Q+D103H TyrR; [3]", "result": 2150},
      {"measurement": "n (Hill coefficient)", "setting": "E274Q+D103H TyrR; [3]", "result": 1},
      {"measurement": "response of PtyrP", "setting": "[1]", "result": "eliminated"},
      {"measurement": "EC50", "setting": "E274Q+L11G TyrR", "result": 45, "unit": "µM"},
      {"measurement": "Fmax", "setting": "E274Q+L11G TyrR; [4]", "result": 12900},
      {"measurement": "Fmin", "setting": "E274Q+L11G TyrR; [4]", "result": 5570},
      {"measurement": "n (Hill coefficient)", "setting": "E274Q+L11G TyrR; [4]", "result": 2.2},
      {"measurement": "EC50", "setting": "E274Q+T14G TyrR", "result": 37, "unit": "µM"},
      {"measurement": "Fmax", "setting": "E274Q+T14G TyrR; [5]", "result": 12400},
      {"measurement": "Fmin", "setting": "E274Q+T14G TyrR; [5]", "result": 1430},
      {"measurement": "n (Hill coefficient)", "setting": "E274Q+T14G TyrR; [5]", "result": 2.4},
      {"measurement": "fold induction of PtyrP", "setting": "wild-type TyrR; overexpression of wild-type TyrR", "result": 4, "unit": "fold"},
      {"measurement": "Fmax", "setting": "wild-type TyrR; [6]", "result": 10500},
      {"measurement": "Fmin", "setting": "wild-type TyrR; [6]", "result": 2900},
      {"measurement": "n (Hill coefficient)", "setting": "wild-type TyrR; [6]", "result": 5.5},
      {"measurement": "EC50", "setting": "wild-type TyrR; wild-type TyrR, pAGR010, FIG. 1C, 8 h, read-out: KA (half maximal constant)", "result": 73, "unit": "µM"},
      {"measurement": "EC50", "setting": "E274Q+T14V TyrR; KA (half maximal constant), pAGR157, FIG. 2C, 2E, 8 h", "result": "80 µM and 83 µM"},
      {"measurement": "KA relative to the E274Q mutant", "setting": "E274Q+T14V TyrR; higher than E274Q", "result": 2, "unit": "fold"},
      {"measurement": "Fmax", "setting": "E274Q+T14V TyrR; pAGR157, FIG. 2C, 2E, 8 h", "result": 7560},
      {"measurement": "Fmin", "setting": "E274Q+T14V TyrR; pAGR157, FIG. 2C, 2E, 8 h", "result": 814},
      {"measurement": "n (Hill coefficient)", "setting": "E274Q+T14V TyrR; pAGR157, FIG. 2C, 2E, 8 h", "result": 1.4},
      {"measurement": "response of PtyrP", "setting": "R10F TyrR", "result": "lack of response; also recorded: no significant response"},
      {"measurement": "EC50", "setting": "E274Q+D103S TyrR; KA (half maximal constant), pAGR159, FIG. 2C, 2F, 8 h", "result": "130 µM and 128 µM"},
      {"measurement": "KA relative to the E274Q mutant", "setting": "E274Q+D103S TyrR; higher than E274Q", "result": 3, "unit": "fold"},
      {"measurement": "Fmax", "setting": "E274Q+D103S TyrR; pAGR159, FIG. 2C, 2F, 8 h", "result": 10700},
      {"measurement": "Fmin", "setting": "E274Q+D103S TyrR; pAGR159, FIG. 2C, 2F, 8 h", "result": 1310},
      {"measurement": "n (Hill coefficient)", "setting": "E274Q+D103S TyrR; pAGR159, FIG. 2C, 2F, 8 h", "result": 0.7},
      {"measurement": "fold induction of PtyrP", "setting": "E274Q TyrR", "result": 16, "unit": "fold"},
      {"measurement": "EC50", "setting": "E274Q TyrR; KA (half maximal constant), pAGR102, FIG. 2C, 2D, 8 h", "result": "40 µM and 42 µM"},
      {"measurement": "Fmax", "setting": "E274Q TyrR; pAGR102, FIG. 2C, 2D, 8 h", "result": 12800},
      {"measurement": "Fmin", "setting": "E274Q TyrR; pAGR102, FIG. 2C, 2D, 8 h", "result": 982},
      {"measurement": "n (Hill coefficient)", "setting": "E274Q TyrR; pAGR102, FIG. 2C, 2D, 8 h", "result": 2}
    ]}
  ]
}
